Assay results published in the NIST ThermoML archive (doi:10.1016/j.jct.2013.01.032).
Numbers after ± are expanded uncertainties.

Experiments:
[1] = mn = molality of the nth substance listed, in mol/kg; settings: 101 kPa, Liquid; for speed of sound: Sing-around technique in a fixed-path interferometer; for mass density: Vibrating tube method
[2] = osmotic coefficient (dimensionless); mn = molality of the nth substance listed, in mol/kg; settings: 323.15 K, Liquid, Knauer Osmometer

CCCCn1cc[n+](C)c1.O=S(=O)([O-])C(F)(F)F [1-butyl-3-methylimidazolium trifluoromethanesulfonate] + CCCO
[1]
Settings	mass density, 293.15 K [kg/m3]	mass density, 308.15 K [kg/m3]	mass density, 323.15 K [kg/m3]	speed of sound, 293.15 K [m/s]	speed of sound, 308.15 K [m/s]	speed of sound, 323.15 K [m/s]
m1 = 0.05	808.59 ± 0.23	796.51 ± 0.23	784.03 ± 0.23	1225.2 ± 0.8	1174.1 ± 0.8	1123.8 ± 0.8
m1 = 0.101	813.12 ± 0.22	801.04 ± 0.23	788.57 ± 0.23	1225.9 ± 0.8	1175.1 ± 0.8	1125.1 ± 0.8
m1 = 0.15	817.38 ± 0.22	805.31 ± 0.22	792.86 ± 0.23	1226.2 ± 0.8	1176 ± 0.8	1126.3 ± 0.8
m1 = 0.2	821.64 ± 0.19	809.57 ± 0.22	797.12 ± 0.16	1226.7 ± 0.8	1176.8 ± 0.8	1127.3 ± 0.8
m1 = 0.25	825.82 ± 0.21	813.75 ± 0.21	801.31 ± 0.22	1227.4 ± 0.8	1177.6 ± 0.8	1128.4 ± 0.8
m1 = 0.758	864.71 ± 0.19	852.6 ± 0.2	840.18 ± 0.2	1232.4 ± 0.9	1184.8 ± 0.8	1137.7 ± 0.8
m1 = 1.004	881.36 ± 0.18	869.23 ± 0.18	856.81 ± 0.18	1235 ± 0.9	1188.2 ± 0.9	1141.9 ± 0.8
m1 = 1.258	897.18 ± 0.17	885.04 ± 0.17	872.62 ± 0.18	1237.6 ± 0.9	1191.7 ± 0.9	1146.2 ± 0.8
m1 = 1.524	912.6 ± 0.16	900.41 ± 0.16	887.99 ± 0.17	1241.2 ± 0.9	1195.4 ± 0.9	1150.5 ± 0.9
m1 = 1.771	925.96 ± 0.15	913.75 ± 0.16	901.33 ± 0.16	1243.6 ± 0.9	1198.7 ± 0.9	1154.5 ± 0.9
m1 = 2.021	938.44 ± 0.15	926.22 ± 0.15	913.81 ± 0.16	1246.4 ± 0.9	1202 ± 0.9	1158.4 ± 0.9
m1 = 2.517	960.93 ± 0.14	948.73 ± 0.15	936.31 ± 0.15	1251.9 ± 1	1208.4 ± 0.9	1165.7 ± 0.9
m1 = 3.011	981.02 ± 0.14	968.77 ± 0.15	956.37 ± 0.15	1257.1 ± 1	1214.8 ± 1	1172.9 ± 0.9

[2]
Settings	osmotic coefficient
m1 = 0.0299	0.906 ± 0.016
m1 = 0.0473	0.817 ± 0.014
m1 = 0.0849	0.775 ± 0.015
m1 = 0.0975	0.755 ± 0.015
m1 = 0.2019	0.66 ± 0.017
m1 = 0.2968	0.612 ± 0.018
m1 = 0.4022	0.575 ± 0.019
m1 = 0.5062	0.549 ± 0.02
m1 = 0.8045	0.494 ± 0.022
m1 = 1.206	0.445 ± 0.023
m1 = 1.64	0.412 ± 0.024
m1 = 2.044	0.39 ± 0.025
m1 = 2.44	0.378 ± 0.025
m1 = 2.829	0.361 ± 0.026
m1 = 3.316	0.34 ± 0.026
